{"source": "patent US10155948B2", "about": "“Pharmaceutical composition for preventing or treating diabetic complications and screening method for preventive or therapeutic agent for diabetic complications” (KANGWON NATIONAL UNIVERSITY UNIVERSITY-INDUSTRY COOPERATION …, priority 2016, dated 2018)", "tested_on": "retinas of diabetic mice", "test": "Vascular leakage in retina of diabetic mice (fluorescein angiography, FITC-dextran)", "format": "in vivo, mouse", "conditions": "for vascular leakage in diabetic retina (FITC-dextran extravasation): diabetic mice, intravitreal 2 μl 50 mM cystamine or 20 mM MDC, after 24 hrs, p<0.001, n=8; for increase of vascular leakage in retinas of diabetic mice: intravitreal injection, 0.5 mM dopamine, 500 mM cysteamine, n=6", "method": "Two weeks after streptozotocin injection, diabetic mice were intravitreally injected with 2 μl of TGase inhibitors (50 mM cystamine or 20 mM MDC), 1 μM C-peptide (American Peptide Company, Sunnyvale, Calif.), ROS scavengers (2 μM Trolox or 500 mM NAC), or 65 μM mouse TG2-specific siRNA (Dharmacon, Lafayette, Colo.) into one eye and an equal volume of PBS or mouse control siRNA (Dharmacon, Lafayette, Colo.) into the contralateral eye. Non-diabetic mice were also intravitreally injected with 2 μl of PBS or mouse control siRNA into the eyes. After 24 hrs for inhibitors or C-peptide or 48 hrs for mouse TGase2 siRNA, mice were subjected to measurement of in-vivo TGase activity and vascular leakage from the retina.\nMicrovascular leakage in mouse retina was investigated via the fluorescein angiography method as previously described. In brief, 24 hrs or 48 hrs after intravitreal injection of TGase2 inhibitors or mouse TGase2 siRNA, respectively, mice were deeply anaesthetized and 1.25 mg of 500 kDa FITC-dextran (Sigma) was injected into the left ventricle. The dye was allowed to circulate for 5 min and mice were sacrificed via cervical dislocation. The eyes were enucleated and immediately fixed with 4% paraformaldehyde for 45 min. Retinas were dissected in the Maltese cross-configuration and flat-mounted onto glass slides. The superficial vessels of the retinas (n=8 per group) were observed by confocal microscopy and vascular leakage was quantitatively analyzed using the Fluoview software by determining the fluorescence intensities of FITC-dextran extravasated from the retina vessel.\nSix-week-old male C57BL/6 mice were obtained from KOATECH (Pyeongtaek, Korea). TGase2^−/− mice (C57BL/6) were prepared by disrupting exons 5 and 6 of TGase2 by homologous recombination, as previously described. Diabetic mice were generated by a single intraperitoneal injection of streptozotocin (150 mg/kg body weight, Sigma) freshly prepared in 100 mM citrate buffer (pH 4.5) as previously described. Mice with non-fasting blood glucose levels greater than 19 mM, polyuria and glucosuria were considered diabetic. Experiments were performed in strict accordance with the guidelines of the Institutional Animal Care and Use Ethics Committee of Kangwon National University.\n(A, B) Streptozotocin-diabetic mice were intravitreally injected with PBS (diabetic), cystamine (diabetic+Cys) or MDC (diabetic+MDC) into the eyes. Non-diabetic mice were also intravitreally injected with PBS into eyes (normal). […] (B) Retina permeability was quantified by measuring the fluorescence intensities of FITC-dextran in (A). […]\nDopamine and cysteamine were intravitreally injected into mouse eyes, and diabetic retinas were then analyzed for vascular leakage through fluorescein angiography.", "data": [{"compound": "NCCSSCCN", "note": "[cystamine]", "values": [{"measurement": "vascular leakage in diabetic retina (FITC-dextran extravasation)", "value": "prevented"}]}, {"compound": "NCCS", "note": "[cysteamine]", "values": [{"measurement": "increase of vascular leakage in retinas of diabetic mice", "value": "inhibited"}]}, {"compound": "CN(C)c1cccc2c(S(=O)(=O)NCCCCCN)cccc12", "note": "[MDC, monodansylcadaverine]", "values": [{"measurement": "vascular leakage in diabetic retina (FITC-dextran extravasation)", "value": "prevented"}]}, {"compound": "NCCc1ccc(O)c(O)c1", "note": "[dopamine]", "values": [{"measurement": "increase of vascular leakage in retinas of diabetic mice", "value": "inhibited"}]}]}
